The numbers were not newly measured in patent US20050148556A1, “Compositions and methods for increasing HDL and HDL-2b levels” (priority 2003, published 2005), which cites them from elsewhere.

The structures appear in SMILES notation.

The conditions of the series: in vivo.

For the compound `CN(C)C(=N)N=C(N)N` [Metformin, metformin], the “HDL cholesterol levels after metformin therapy” value was “either do not change or increase slightly”.
